Measurements published in patent US8853213B2, “Bicyclic compound for modulating G protein-coupled receptors” (Hanmi Pharm. Co., Ltd, priority 2011, dated 2014).

molecular target: T1, GPR119 (Homo sapiens, UniProt Q8TDV5); assay: Controlling Effect of GPR119 in CRE-bla CHO-K1 Cells (EC50); type: cell-based; settings: GPR119 CRE-bla CHO-K1 cell line, 5 hr incubation with compound, β-lactamase LiveBLAzer-FRET B/G readout; read-out: controlling effect against GPR119 in CRE-bla CHO-K1 cell line (EC50)
T1 construct: host or cells: CHO-K1 (CRE-bla reporter, doxycycline-induced)
T1 sequence (Q8TDV5 1-335): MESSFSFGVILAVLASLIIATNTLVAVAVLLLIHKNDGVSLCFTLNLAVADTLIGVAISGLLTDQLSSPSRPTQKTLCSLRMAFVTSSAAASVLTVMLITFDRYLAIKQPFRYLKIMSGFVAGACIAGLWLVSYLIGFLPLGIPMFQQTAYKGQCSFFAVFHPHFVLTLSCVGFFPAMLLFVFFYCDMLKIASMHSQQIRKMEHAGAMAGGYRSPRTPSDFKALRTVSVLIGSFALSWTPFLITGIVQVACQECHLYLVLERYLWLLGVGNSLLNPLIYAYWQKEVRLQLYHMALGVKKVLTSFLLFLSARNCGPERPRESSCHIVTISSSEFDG
Method: Controlling Effect of GPR119 in CRE-bla CHO-K1 Cells (EC50)
The day before the experiment, GPR119 CRE-bla CHO-K1 cell line purchased from Invitrogen was seeded in a 96 black well plate in an amount of 80 μl at a density of 5×10^4 cells. After the seeding, 10 μl of doxycycline in a concentration of 1 μg/ml was added to each well and incubated in an incubator at 37° C. under 5% CO2 for about 16 to 20 hr.
The day of experiment, sample compounds were performed a 10-fold serial dilution with a culture medium at various concentrations of 1 uM to […]. Considering that the culture medium used in the seeding and doxycycline are together applied, the sample compounds were diluted to a 5-fold dilution of the planned concentration. 20 μl of the compound diluted with the culture medium was added to each well and incubated in the incubator for 5 hr. The compound-untreated group was added with 20 μl of 0.5% dimethyl sulfoxide (DMSO) diluted with the culture medium. After 5 hr from the incubation, substrate mixture of a 6-fold concentration were prepared; 6 μl of 1 mM LiveBLAzer™-FRET B/G(CCF4-AM) substrate, 60 μl of solution B, 904 μl of solution C and 30 μl of solution D. 12 μl of the substrate mixture was added to each well and allowed to be kept at room temperature for 2 hr with shading the light. Fluorescence intensity value of blue channel and green channel was determined by a fluorescence microplate reader at 409 nm/460 nm and 409 nm/[…] (excitation/emission), respectively. In order to confirm the controlling effect of the inventive compounds against GPR119, EC50 (half maximal effective concentration) was determined based on the determined values. EC50, the concentration at which 50% activity of β-lactamase, was determined according to the following Equation: Equation=[(Ti−Tz)/(C−Tz)]×100
[Wherein, Ti: Cell density of the compound-treated group; Tz: Cell density of the negative control group; and C: Cell density of the positive control group]

SMILES | EC50
CS(=O)(=O)c1ccc(-c2csc3c(OC4CCN(c5ncc(C6CC6)cn5)CC4)ncnc23)cc1 [Example 56, 4-[1-(5-cyclopropyl-pyrimidin-2-yl)-piperidin-4-yloxy]-7-(4-methanesulfonyl-phenyl)-thieno[3,2-d]pyrimidine] | < 100 nM
CCc1cnc(N2CCC(Oc3ncnc4c(-c5ccc(S(C)(=O)=O)cc5)csc34)C2)nc1 (stereo not drawn) [Example 57, 4-[1-(5-ethylpyrimidin-2-yl)-pyrrolidin-3-yloxy]-7-(4-methanesulfonyl-phenyl)-thieno[3,2-d]pyrimidine] | < 100 nM
CC(C)c1noc(N2CCC(Oc3ncnc4c(-c5ccc(S(C)(=O)=O)cc5)csc34)C2)n1 (stereo not drawn) [Example 58, 4-[1-(3-isopropyl-[1,2,4]oxadiazol-5-yl)-pyrrolidin-3-yloxy]-7-(4-methanesulfonyl-phenyl)-thieno[3,2-d]pyrimidine] | 100 to 1000 nM
CS(=O)(=O)c1ccc(-c2csc3c(OC4CCN(c5nccc(C(F)(F)F)n5)CC4)ncnc23)cc1 [Example 59] | > 1000 nM
CS(=O)(=O)c1ccc(-c2csc3c(OC4CCN(c5nc(-c6ccccc6)no5)CC4)ncnc23)c(F)c1 [Example 64, 5-(4-(7-(2-fluoro-4-methanesulfonyl-phenyl)thieno[3,2-d]pyrimidin-4-yloxy)piperidin-1-yl)-3-phenyl-1,2,4-oxadiazole] | < 100 nM
CS(=O)(=O)c1ccc(-c2csc3c(OC4CCN(c5nc(-c6ccc(F)cc6)no5)CC4)ncnc23)c(F)c1 [Example 65, 5-(4-(7-(2-fluoro-4-methanesulfonyl-phenyl)thieno[3,2-d]pyrimidin-4-yloxy)piperidin-1-yl)-3-(4-fluorophenyl)-1,2,4-oxadiazole] | < 100 nM
CS(=O)(=O)c1ccc(-c2csc3c(OC4CCN(c5nc(-c6ccncc6)no5)CC4)ncnc23)c(F)c1 [Example 66, 5-(4-(7-(2-fluoro-4-methanesulfonyl-phenyl)thieno[3,2-d]pyrimidin-4-yloxy)piperidin-1-yl)-3-(pyridin-4-yl)-1,2,4-oxadiazole] | < 100 nM
CC(C)(C)OC(=O)N1CCC(Oc2ncnc3c(-c4ccc(S(C)(=O)=O)cc4F)csc23)CC1 [Example 72, tert-butyl 4-(7-(2-fluoro-4-methanesulfonyl-phenyl)thieno[3,2-d]pyrimidin-4-yloxy)piperidin-1-carboxylate] | < 100 nM
CC(C)OC(=O)N1CCC(Oc2ncnc3c(-c4ccc(S(C)(=O)=O)cc4F)csc23)CC1 [Example 73, isopropyl 4-(7-(2-fluoro-4-methanesulfonyl-phenyl)thieno[3,2-d]pyrimidin-4-yloxy)piperidin-1-carboxylate] | < 100 nM
CN1CCC(Oc2ncnc3c(-c4ccc(S(C)(=O)=O)cc4F)csc23)CC1 [Example 74, 7-(2-fluoro-4-methanesulfonyl-phenyl)-4-[1-methylpiperidin-4-yloxy]thieno[3,2-d]pyrimidine] | > 1000 nM
CS(=O)(=O)c1ccc(-c2csc3c(OC4CCN(C#N)CC4)ncnc23)c(F)c1 [Example 75, 4-(7-(2-fluoro-4-methanesulfonyl-phenyl)thieno[3,2-d]pyrimidin-4-yloxy)piperidin-1-carbonitrile] | 100 to 1000 nM
CS(=O)(=O)c1ccc(-c2csc3c(OC4CCNCC4)ncnc23)c(F)c1 [Example 76, 7-(2-fluoro-4-methanesulfonyl-phenyl)-4-[piperidin-4-yloxy]thieno[3,2-d]pyrimidine] | > 1000 nM
CS(=O)(=O)c1ccc(-c2csc3c(OC4CCN(c5nc6ccccc6o5)CC4)ncnc23)c(F)c1 [Example 77, 2-(4-(7-(2-fluoro-4-methanesulfonyl-phenyl)thieno[3,2-d]pyrimidin-4-yloxy)piperidin-1-yl)benzo[d]oxazole] | < 100 nM
CCc1cnc(N2CCC(Oc3ncnc4c(-c5ccc(S(C)(=O)=O)cc5F)csc34)CC2)nc1 [Example 81, 4-[1-(5-ethylpyrimidin-2-yl)-piperidin-4-yloxy]-7-(2-fluoro-4-methanesulfonyl-phenyl)-thieno[3,2-d]pyrimidine] | < 100 nM
CCCc1cnc(N2CCC(Oc3ncnc4c(-c5ccc(S(C)(=O)=O)cc5F)csc34)CC2)nc1 [Example 83, 7-(2-fluoro-4-methanesulfonyl-phenyl)-4-[1-(5-propyl-pyrimidin-2-yl)-piperidin-4-yloxy]-thieno[3,2-d]pyrimidine] | < 100 nM

Other lines, results leading:

EC50 | SMILES
< 100 nM | CC(C)c1noc(N2CCC(Oc3ncnc4c(-c5ccc(S(C)(=O)=O)cc5F)csc34)CC2)n1 [Example 60, 7-(2-fluoro-4-methanesulfonyl-phenyl)-4-[1-(3-isopropyl-[1,2,4]oxadiazol-5-yl)piperidin-4-yloxy]thieno[3,2-d]pyrimidine]
< 100 nM | CCc1noc(N2CCC(Oc3ncnc4c(-c5ccc(S(C)(=O)=O)cc5F)csc34)CC2)n1 [Example 61, 3-ethyl-5-(4-(7-(2-fluoro-4-methanesulfonyl-phenyl)thieno[3,2-d]pyrimidin-4-yloxy)piperidin-1-yl)-1,2,4-oxadiazole]
< 100 nM | CCC(C)c1noc(N2CCC(Oc3ncnc4c(-c5ccc(S(C)(=O)=O)cc5F)csc34)CC2)n1 (stereo not drawn) [Example 62, 3-sec-butyl-5-(4-(7-(2-fluoro-4-methanesulfonyl-phenyl)thieno[3,2-d]pyrimidin-4-yloxy)piperidin-1-yl)-1,2,4-oxadiazole]
< 100 nM | CS(=O)(=O)c1ccc(-c2csc3c(OC4CCN(c5nc(C6CC6)no5)CC4)ncnc23)c(F)c1 [Example 63, 7-(2-fluoro-4-methanesulfonyl-phenyl)-4-[1-(3-cyclopropyl-[1,2,4]oxadiazol-5-yl)piperidin-4-yloxy]thieno[3,2]pyrimidine]
< 100 nM | CS(=O)(=O)c1ccc(-c2csc3c(OC4CCN(c5nc(-c6cccnc6)no5)CC4)ncnc23)c(F)c1 [Example 67, 5-(4-(7-(2-fluoro-4-methanesulfonyl-phenyl)thieno[3,2-d]pyrimidin-4-yloxy)piperidin-1-yl)-3-(pyridin-3-yl)-1,2,4-oxadiazole]
100 to 1000 nM | CS(=O)(=O)c1ccc(-c2csc3c(OC4CCN(c5nc(-c6cnccn6)no5)CC4)ncnc23)c(F)c1 [Example 68, 5-(4-(7-(2-fluoro-4-methanesulfonyl-phenyl)thieno[3,2-d]pyrimidin-4-yloxy)piperidin-1-yl)-3-(pyrazin-2-yl)-1,2,4-oxadiazole]
< 100 nM | CS(=O)(=O)c1ccc(-c2csc3c(OC4CCN(c5nc(CC6CC6)no5)CC4)ncnc23)c(F)c1 [Example 69, 7-(2-fluoro-4-methanesulfonyl-phenyl)-4-[1-(3-cyclopropylmethyl-[1,2,4]oxadiazol-5-yl)piperidin-4-yloxy]thieno[3,2-d]pyrimidine]
< 100 nM | CS(=O)(=O)c1ccc(-c2csc3c(OC4CCN(c5nc(C6CCCC6)no5)CC4)ncnc23)c(F)c1 [Example 70, 7-(2-fluoro-4-methanesulfonyl-phenyl)-4-[1-(3-cyclopentyl-[1,2,4]oxadiazol-5-yl)piperidin-4-yloxy]thieno[3,2-d]pyrimidine]
< 100 nM | CC(C)(C)c1noc(N2CCC(Oc3ncnc4c(-c5ccc(S(C)(=O)=O)cc5F)csc34)CC2)n1 [Example 71, 7-(2-fluoro-4-methanesulfonyl-phenyl)-4-[1-(3-t-butyl-[1,2,4]oxadiazol-5-yl)piperidin-4-yloxy]thieno[3,2-d]pyrimidine]
< 100 nM | CC(C)Cc1noc(N2CCC(Oc3ncnc4c(-c5ccc(S(C)(=O)=O)cc5F)csc34)CC2)n1 [Example 78, 7-(2-fluoro-4-methanesulfonyl-phenyl)-4-[1-(3-isobutyl-[1,2,4]oxadiazol-5-yl)piperidin-4-yloxy]thieno[3,2-d]pyrimidine]
< 100 nM | CS(=O)(=O)c1ccc(-c2csc3c(OC4CCN(c5nc(C6CCCCC6)no5)CC4)ncnc23)c(F)c1 [Example 79, 7-(2-fluoro-4-methanesulfonyl-phenyl)-4-[1-(3-cyclohexyl-[1,2,4]oxadiazol-5-yl)piperidin-4-yloxy]thieno[3,2-d]pyrimidine]
< 100 nM | CS(=O)(=O)c1ccc(-c2csc3c(OC4CCN(c5nc(C6CC7CCC6C7)no5)CC4)ncnc23)c(F)c1 (stereo not drawn) [Example 80, 7-(2-fluoro-4-methanesulfonyl-phenyl)-4-[1-(3-bicyclo[2,2,1]heptan-2-yl[1,2,4]oxadiazol-5-yl)piperidin-4-yloxy]thieno[3,2-d]pyrimidine]
